{"source": "paper PMC6912862", "about": "(ACS Medicinal Chemistry Letters, 2019)", "origin": "cited, not measured here", "key": {"HeLa cells": {"system": "HeLa cells", "details": "cisplatin comparison"}, "HeLa xenograft": {"system": "HeLa xenograft", "details": "same conditions (2.0 mg/kg), p < 0.05"}}, "note": "Values joined by “and” are separate entries in the source; they are usually repeats but may differ in a detail not shown here. Equal values may be shown once.", "data": [{"smiles": "N.N.[Cl][Pt][Cl]", "note": "[cisplatin, cis-[PtCl2(NH3)2]]", "values": [{"measurement": "Cell accumulation of Pt", "setting": "HeLa cells", "value": "4.11 ± 0.59 (nmol of Pt)/10^6 cells"}, {"measurement": "Inhibition of tumor growth (IR), cisplatin-treated groups", "setting": "HeLa xenograft", "value": "35.2% and 35.2 ± 5.8%"}]}]}
